Columns and labels:
[1] = molecular target: Polymerase acidic protein (Influenza A virus (strain A/Hong Kong/1/1968 H3N2)) (UniProt Q91MA9); experiment: Upper respiratory tract challenge; assay type: functional, organism-based; settings: Mus musculus
[2] = molecular target: Polymerase acidic protein (Influenza A virus (A/Puerto Rico/8/1934(H1N1)), UniProt P03433); experiment: Inhibition of cap 1 ALMV primed Influenza transcriptase

CC(=O)N[C@@H]1[C@@H](NC(=N)N)C=C(C(=O)O)O[C@@]1(C)[C@H](O)[C@H](O)CO
Log10 reduction [1]: 4.3

O=C(O)/C(O)=C/C(=O)C1(Cc2ccc(Cl)cc2)CCN(Cc2ccc(Cl)cc2)CC1
IC50 [2]: 540 nM

From ChEMBL document CHEMBL2040548, “Anti-influenza virus activities of 4-substituted 2,4-dioxobutanoic acid inhibitors” (Antimicrob Agents Chemother, 1996)
